Our source for the Activity values is ChEMBL document CHEMBL3046764, “Heterocyclic ortho-quinones, a novel type of Photosystem II inhibitors” (Biochim Biophys Acta, 2001).

Molecules are shown by their SMILES. The source made the active and inactive calls. The rule behind the calls is not given here.

This assay deals with Photosystem II protein D1 (Chlamydomonas reinhardtii) (UniProt P07753). Description: Non-competitive displacement of [14C]atrazine from Chlamydomonas reinhardtii photosystem II protein D1 assessed as DCIP-reduction by double-reciprocal plot. For orientation: Loss of bound radioactivity is the signal in a displacement assay; it reports binding, not function.

`CCCCCCCC1=C(Br)c2nc3ccccn3c2C(=O)C1=O`: the result was Active.
